# Literature values in patent US4746505A, “Technetium radiodiagnostic fatty acids derived from bisamide bisthiol ligands” (President and Fellows of Harvard College, priority 1985, dated 1988).
# Experiments:
# [1] = at carrier-added (CA) and no-carrier-added (NCA) concentrations
# [2] = mice
Substance,stability in vitro [1],stability in vivo (at carrier-added (CA) and no-carrier-added (NCA) concentrations),renal excretion (in vivo),kidney activity ([2]; at 5 min post-injection),blood levels ([2]; over the first 30 min)
"oxo[N,N'-ethylenebis(2-mercapto-acetamido)]technetate (+5) [[TcO(ema)]^-]",stable,stable,rapid renal excretion,,
"^99m Tc-oxo[N,N'-ethylene-bis(2-mercapto)-[2'-(11-carboxyundecyl)]thio-acetamido]-technetate (+5) [^99m TcO(Undec)ema]",,,,relatively high kidney activity,6-8 %/g
